Results reported in ChEMBL document CHEMBL3507680, “University of Dundee, Gates Library screen for HepG2 cell viability”.

Assay: Human HepG2 cell viability assay in 384 well format
Format: toxicity, cell-based
Set-up: dose 125 nL, time 70.5 hour; cytotoxicity at 70.5 h: concentration not given beside the values
Details: HepG2 cells, read-out: Inhibition

| SMILES | cytotoxicity at 70.5 h |
| --- | --- |
| COc1ccccc1OCCNC(=O)NCC(C)C | -12.4% |
| O=C(Nc1nccs1)N(CCO)Cc1ccsc1 | 1.52% |
| O=C(O)c1csc(S(=O)(=O)Nc2cccc(OCC(F)(F)F)c2)c1 | -3.57% |
| Cc1nc(S(=O)(=O)N2CCSC3(CCCCC3)C2)cn1C | -4% |
| CCCc1nc(C(C)(C)NC(=O)c2ccnn2C)no1 | -2.57% |
| COCCn1c(=O)n(C)c(=O)c2ccc(C3CCN(C(C)=O)CC3)nc21 | -1.06% |
| O=C1CC(c2cccnc2)C2(CCN(C(=O)c3ccncc3)CC2)N1 (centres undefined) | -1.04% |
| CC(C)(C)c1cc(NC(=O)CNC2CCc3ncnn3C2)on1 (centres undefined) | -11.9% |
| COc1ccc(Oc2ncccc2F)cc1CN1CCCC1 | 3.51% |
| c1ccc(Cc2nnc(CN3CCCC3Cn3cccn3)o2)cc1 (centres undefined) | -1.31% |
| Cc1oncc1C(=O)N1CC[C@H]2[C@H]1CCN2Cc1ccccn1 | -3.13% |
| Fc1cccc(CCN(c2ccc3nnnn3n2)C2CC2)c1 | -17.4% |
| CC1CCC(NCCNC(=O)c2cccs2)CC1 (centres undefined) | -7.09% |
| O=C(NC1CC1)N1CCn2c(Cn3cccn3)cnc2C1 | -5.68% |
| Cc1cnn(CCNCc2nnc(-c3occc3C)o2)c1 | -5.91% |
| CCCn1ccnc1CN1C[C@@H](CN2CCCN(C)CC2)[C@@H](CO)C1 | -9.5% |
| Cc1nc2c(c(NCc3ccc(-c4ccccn4)s3)n1)CCNCC2 | -8.23% |
| Cn1cc(N2CCC3(CCN(Cc4cccnc4)C3)C2=O)cn1 (centres undefined) | -17.1% |
| Cc1c(CS(C)(=O)=O)cccc1NCCCC1CCCC1 | -7.83% |
| Cn1c(C2CC2)nc2c1CCN(Cc1nc(Cc3ccccc3)no1)C2 | -12.9% |
| CC1CCN(C(=O)C2CCN(S(C)(=O)=O)CC2)c2ccccc21 (centres undefined) | -7.57% |
| O=C(O)C(c1ccc2c(c1)OCCO2)N1CCCCCC1 (centres undefined) | -7.26% |
| c1cnn(CCCO[C@@H]2CC[C@H]3[C@H]2OCCN3CC2CCOCC2)c1 | -5.34% |

| SMILES | cytotoxicity at 70.5 h |
| --- | --- |
| CC(NC(=O)C1CN(c2ncnc3c2nnn3C)C1)c1ccccc1 (centres undefined) | -16.6% |
| CNC(=O)[C@H]1C[C@@H]2CN(c3cc(OC)ncn3)C[C@@H]2N1C(C)C | 15.2% |
| Cc1cccnc1C(=O)N1CCCC(Cc2cncc3ccccc23)C1 (centres undefined) | -3.08% |
| COCCN1CCN(Cc2ccco2)Cc2ccc(C)nc21 | 2.35% |
| COc1ccc2c(c1)C(C(=O)NCCN1CCOC1=O)CC(=O)N2 (centres undefined) | -4.48% |
| Cc1cc(CN(C)C(=O)C2CCCN(C(N)=O)C2)no1 (centres undefined) | -5.82% |
| CC(C)CN1C(=O)CC[C@H]2CN(C(=O)Cn3ccccc3=O)CC[C@H]21 | -0.419% |
| CCn1cc(Cl)c(C(=O)NCCCO)n1 | -3.76% |
| Cc1ccc(N2CCCC(N(C)Cc3noc(C4CC4)n3)C2)nn1 (centres undefined) | -9.69% |
| CCn1ccnc1CN1CCCN(C(=O)Cc2ccc(C)nc2)CC1 | -14.5% |
| Cc1ccn(CCC(=O)N2CCCC(Cc3cccnc3)C2)n1 (centres undefined) | -5.66% |
| CCc1ncnc2c1CCN(C(=O)c1ccccn1)CC2 | -24.1% |
| O=C(c1ccnc(-n2cnnc2)c1)N1CCCC2(CCNC2)C1 (centres undefined) | -9.32% |
| CC(C)(Cn1cnc(-c2ccccc2)c1-c1ccco1)N1CCOCC1 | -10.2% |
| COC(=O)CNC(=O)C12CCC(=O)N1c1cc(Cl)ccc1S2 (centres undefined) | -1.84% |
| CC(C)CNC(=O)NC(=O)CNc1ccccc1SCC(C)C#N (centres undefined) | -2.52% |
| Cc1nccn1CCCC(=O)N1CCC(N(C)c2cccnn2)CC1 | -7.52% |
| Cc1cc(C2CCCN(CCc3ccccn3)C2)n[nH]1 (centres undefined) | -17% |
| Cc1cc(C)c(C(=O)N2CCN(c3ncccc3C#N)CC2)c(=O)[nH]1 | 1.08% |
| Cc1ccccc1OCCN1CCCC(c2cc(C(N)=O)[nH]n2)C1 (centres undefined) | -6.71% |
| CN1CCN(c2ccccc2NC(=O)c2ccco2)CC1 | -6.77% |
| CC(NC(=O)C(C)(C)C#N)c1ccc(OCC2CC2)c(F)c1 (centres undefined) | -6.52% |
| CCn1cc(NC(=O)NCc2ccc(CO)c(F)c2)cn1 | -7.1% |

| SMILES | cytotoxicity at 70.5 h |
| --- | --- |
| COc1ccc(Nc2nc3c(C)nn(C)c3c(=O)n2C)c(OC)c1 | -18.2% |
| O=C(CCn1c(C(F)F)cc2cccnc21)NC1CCCC1 | -6.41% |
| Cn1cc(Br)c(=O)c(NS(=O)(=O)c2ccc(Cl)cc2)c1 | -18.4% |
| CCOCC1CN(C(=O)CC2=CCCCC2)Cc2nnn(C)c21 (centres undefined) | -12.8% |
| CCS(=O)(=O)CC(=O)NCC1(c2c(F)cccc2F)CCCC1 | 18% |
| CCC[C@H]1CN(S(=O)(=O)c2cc(C)ccc2F)C[C@@H]1N | -0.888% |
| COC(=O)CCCC(=O)N(C)CC1Cc2ccccc2CN1C (centres undefined) | -8.82% |
| CC(C)c1cccc(N2CCCC3(CCC(=O)N(C4CC4)C3)C2)n1 (centres undefined) | -1.84% |
| Cc1cnn(CC2CCCCN2C(=O)c2nccnc2N)c1 (centres undefined) | -4.52% |
| O=C(O)[C@]12CCCN(Cc3cccnc3)[C@@H]1CCN(c1cnccn1)C2 | 2.83% |
| CC(C)N1CCc2onc(Cn3cccn3)c2C1 | -5.3% |
| O=C(NCCc1ccccc1)c1cn(CCNCc2cccnc2)nn1 | -6.19% |
| CCOC(=O)N1CCN(CC(=O)Nc2nnc(CC)s2)CC1 | -4.24% |
| CCn1c(C)nnc1CN(C)C1CCN(CCOc2ccccc2)C1 (centres undefined) | 29.3% |
| O=C(N1CCCC(n2cncn2)C1)C1(c2ccccc2F)CCCC1 (centres undefined) | -5.6% |
| CC(=O)N1CCN(CC=C(C)C)CC1 | -6.01% |
| CCN1CCc2onc(CNc3ncccn3)c2C1 | 8.16% |
| CN(Cc1cc(C(C)(C)C)n[nH]1)C(=O)c1cn2ccsc2n1 | -2.6% |
| O=C1C(Sc2nnnn2C2CC2)CCN1c1ccccc1F (centres undefined) | -3.39% |
| Cc1nc(Nc2ncccn2)cc(C2CCCN2C)n1 (centres undefined) | -7.58% |
| COCCC(=O)N1CCN(CC(C)C)c2nc(C)ccc2C1 | -4% |
| CC(C)n1cc(C(=O)N2CCN(c3cccc(C(F)(F)F)c3)CC2)cn1 | -5.28% |
| Cn1cc(CN2CC[C@@H](NS(C)(=O)=O)[C@@H]2Cc2cccnc2)cn1 | -12.3% |

| SMILES | cytotoxicity at 70.5 h |
| --- | --- |
| CCOC(=O)N1CCC2(CCCN(C3CCOCC3)C2=O)C1 (centres undefined) | -8.17% |
| CC(=O)N1CCc2ccc(S(=O)(=O)N3CCCCC3C)cc21 (centres undefined) | 0.13% |
| CCC(=O)N1CCN(C(=O)Nc2cccc(N3CCOCC3)c2)CC1 | 2.85% |
| Cc1cc(C(F)(F)F)nc(CCNc2nc(C)nc3sccc23)n1 | 15.7% |
| O=C(c1ccncn1)N1CCC[C@]2(C[C@H](OCC3CC3)CO2)C1 | -15.2% |
| Cc1cc(CN2CCN(c3ccnc(-c4ccccc4)n3)CC2)no1 | -4.67% |
| O=C(c1ccco1)N1CCc2onc(CN3CCCC3)c2C1 | 7.25% |
| Cn1ccc(C(=O)NCc2ccc(N3CCCCC3)nc2)cc1=O | 18.6% |
| CCCNC(=O)c1ccc(S(=O)(=O)NC2(COC)CCCC2)cc1 | -5.28% |
| COc1ccc2c(c1)NC(C1CCN(C(=O)C3CC3)CC1)NS2(=O)=O (centres undefined) | -4.62% |
| Cc1csc(CN2CC[C@@](O)(C3CCOCC3)[C@H](C)C2)n1 | -5.11% |
| Cc1cc(NC(=O)Cn2cnc(-c3cccs3)cc2=O)sn1 | 11.1% |
| O=c1[nH]c2nc(NC3CC3)ncc2c(=O)n1-c1ccc(F)cc1 | 0.679% |
| Cc1nc(C2CCNCC2)cc(N2CCCC(C(=O)NCCCO)C2)n1 (centres undefined) | 10.6% |
| COc1ccc(C2CCCN2Cc2cnn(C)c2)cc1 (centres undefined) | -9.31% |
| CC(O)CN1CCC(CNCc2ccccc2OC(F)(F)F)CC1 (centres undefined) | 2.51% |
| CC(C)n1cc(C(=O)N2Cc3ccccc3OC3(CCOCC3)C2)cn1 | 23.6% |
| Cc1ccc([C@H]2CN(C(=O)CC3CCC3)C[C@@H]2N)o1 | 0.0304% |
| Cc1cnn(CC2CCCN2C(=O)c2nccnc2N)c1 (centres undefined) | -6.62% |
| CC(NCc1c(C(C)C)nn(C)c1N1CCOCC1)C(N)=O (centres undefined) | 15.3% |
| O=C(c1ccc(N2CCCC2)nn1)N1CCCc2cc(F)c(F)cc21 | -1.17% |
| O=C(CC(F)(F)F)N1C[C@H]2CN(CC3CC3)C(=O)[C@H]2C1 | -5.1% |
| Cc1ccc(CN2CCC3(CC2)NC(=O)CC3c2ccncc2)cc1C (centres undefined) | -3.31% |

| SMILES | cytotoxicity at 70.5 h |
| --- | --- |
| O=C(CC1CCCC1)N1CCCC1c1ccc(CN2CCOCC2)cn1 (centres undefined) | -0.855% |
| CNc1ncc(C(=O)N2CCCC(CO)(CCCOC)C2)cn1 (centres undefined) | 4.14% |
| CCS(=O)(=O)c1ccc2c(c1)N1CCS(=O)(=O)N=C1O2 | -15.4% |
| O=C(CCn1cccn1)NS(=O)(=O)N1CCCc2ccccc21 | -8.67% |
| COCCN1CCO[C@H]2CN(Cc3cccc(C)n3)C[C@H]21 | -5.32% |
| COc1c(CNC2CCc3ccccc32)c(C)nn1C (centres undefined) | -10.5% |
| COCCN1CCN(C)C2(CCN(C(=O)c3ccnnc3)CC2)C1=O | -0.603% |
| Cc1nc(CN2CCCCC2CCc2cccs2)co1 (centres undefined) | -9.07% |
| CN(CCO)Cc1nnc(C2CCN(C(=O)c3cc[nH]c3)CC2)n1C | -1.84% |
| Cn1cc(N2CC3(CCN(Cc4ccoc4)CC3)OCC2=O)cn1 | -1.7% |
| Cc1ccc(C(=O)N(CCC#N)Cc2ccccn2)cc1C | 8.47% |
| O=C(Cc1ccc(F)cc1)N1CCCCC1c1ccn2ccnc2n1 (centres undefined) | -12% |
| Cn1ccc(C(=O)NC2CCC23CCN(C(=O)c2ccnnc2)CC3)c1 (centres undefined) | 27.1% |
| CCc1noc(CNc2cccc(C(=O)N3CCSCC3)c2)n1 | 0.659% |
| O=c1cc(C2CCNCC2)nc(Cc2cccc(Cl)c2)[nH]1 | -5.11% |
| CNC(=O)C1Cc2ccccc2CN1C(=O)CC(C)C (centres undefined) | -10.1% |
| COc1cccc(CNC(=O)c2ccccc2-n2cc(CN)cn2)c1 | -2.7% |
| CCS(=O)(=O)N1CCC2(CCC(N3CCCC3)c3ccccc32)CC1 (centres undefined) | -10.6% |
| CCOc1ccc(Cl)c(C(=O)N2CCCC(c3ccn[nH]3)C2)n1 (centres undefined) | -2.59% |
| O=C(CCOCc1ccccc1)NS(=O)(=O)N1CCOc2ccccc21 | 11% |
| CCN1CCC2(CC1)CN(C(=O)c1cccnc1)c1ccc(Cl)cc12 | -10.5% |
| Cc1noc([C@@H]2CCCN2C(=O)C2CCN(CC(N)=O)CC2)n1 | -5.63% |
